Experimental data from ChEMBL document CHEMBL1127749 (J Med Chem, 1994).

How the values were obtained:
[1] = biological target: Muscarinic acetylcholine receptor M2 (Mus musculus) (UniProt Q9ERZ4); experiment: In vivo determination of peripheral M2 receptor mediated salivation, cholinergic side effect
[2] = biological target: Muscarinic acetylcholine receptor M2 (Mus musculus) (UniProt Q9ERZ4); experiment: In vivo determination of peripheral M2 receptor mediated hypothermia, cholinergic side effect
[3] = biological target: Muscarinic acetylcholine receptor M2 (Mus musculus) (UniProt Q9ERZ4); experiment: In vivo determination of peripheral M2 receptor mediated tremor, cholinergic side effect
[4] = biological target: Muscarinic acetylcholine receptor M2 (Mus musculus) (UniProt Q9ERZ4); experiment: Compound was tested against peripheral M2 receptor mediated cholinergic side effect hypothermia; Very flat dose-response curve with about 50% of maximum response at 350 umol/kg

| Structure (SMILES) | ED50 [1] [µmol/kg] | ED50 [2] [µmol/kg] | ED50 [3] [µmol/kg] | ED50 [4] [µmol/kg] |
| --- | --- | --- | --- | --- |
| C[N+](C)(C)CCOC(N)=O | 120 | 90 |  |  |
| CCCCn1ncc(C2=CCCN(C)C2)n1 | > 160 | 60 | 72 |  |
| CCN1C(=O)CC2(CCN(C)CC2)C1=O | 2.5 | 8.6 | 38 |  |
| CN1CCC=C(c2cnn(C)n2)C1 | 3.6 | 5.3 | > 110 |  |
| CCn1nnc(C2=CCCNC2)n1 | 41 | 78 | > 150 |  |
| CCn1ncc(C2=CCCNC2)n1 | 12 | 19 | 60 |  |
| CCn1ncc(C2=CCCN(C)C2)n1 | 400 |  | 180 | 350 |
